Measurements: US9181258B2, “Substituted 3,4-dihydropyrrolo[1,2-a]pyrazin-1(2H)-ones as protein kinase inhibitors” (NERVIANO MEDICAL SCIENCES S.R.L., priority 2011, dated 2015)
pIC50: −log10 of the molar value. Where a name gives a salt, the structure may show the parent alone.

How the values were obtained:
human PIM2 = human PIM2 (Homo sapiens (Human), UniProt Q9P1W9); assay: PIM2 kinase inhibition assay: Dowex technique; assay type: biochemical; settings: ATP 4 μM, Aktide 5 μM, enzyme 1.5 nM; read-out: PIM-2 IC50
Experimental: Method for PIM2 Kinase Inhibition Assay: Dowex Technique
The buffer for PIM2 assay was composed of HEPES 50 mM, at pH 7.5, with 1 mM MgCl2, 1 mM DTT, 3 μM Na3VO4, and 0.2 mg/mL BSA.
Full-length human PIM2 was expressed and purified as described in Fedorov O, et al., PNAS 2007 104, 51, 20523-28. ii. Assay Conditions (Final Concentrations)
Enzyme concentration=1.5 nM; ATP=4 μM; ^33P-γ-ATP=1 nM
Aktide substrate (Chemical Abstract Service Registry Number 324029-01-8)=5 μM iii. Robotized Dowex Assay
See above: same procedure as described for PIM1.

BaF3-PIM1 cells = assay: In vitro cell proliferation assay (CellTiter-Glo), BaF3-PIM1; assay type: cell-based; settings: 72 hours
Experimental: (§1) In Vitro Cell Proliferation Assay
(§2) BaF3-PIM1 and MV-4-11 cells were seeded at 125 cells/well and 1250 cells/well respectively in a 384-well white plates in complete medium and treated with compounds dissolved in 0.1% DMSO, 24 h after seeding.
(§3) The cells were incubated at 37° C. and 5% CO2 and after 72 hours the plates were processed using CellTiter-Glo assay (Promega) following the manufacturer's instruction.
(§4) CellTiter-Glo was a homogenous method based on the quantification of the ATP present, an indicator of metabolitically active cells. ATP was quantified using a system based on luciferase and D-luciferin resulting into light generation. The luminescent signal was proportional to the number of cells present in culture.
(§5) Briefly 25 μl/well reagent solution were added to each wells and after 5 minutes shacking microplates were red by Envision (PerkinElmer) luminometer. The luminescent signal was proportional to the number of cells present in culture.
(§6) Inhibitory activity was evaluated comparing treated versus control data using Assay Explorer (MDL) program. IC50 was calculated using sigmoidal interpolation curve.

human PIM1 = human PIM1 (Homo sapiens (Human), UniProt P11309); assay: Biochemical assay for inhibitors of PIM1 kinase activity (trans-phosphorylation, Dowex technique); settings: ATP 200 μM, Aktide 25 μM, enzyme 1 nM; read-out: PIM-1 IC50
Experimental: Biochemical Assay for Inhibitors of PIM1 Kinase Activity
The inhibitory activity of putative kinase inhibitors and the potency of selected compounds were determined using a trans-phosphorylation assay.
Specific peptide or protein substrates were trans-phosphorylated by their specific ser-thr or tyr kinase in the presence of ATP traced with ^33P-γ-ATP, and in the presence of their own optimal buffer and cofactors.
At the end of the phosphorylation reaction, more than 98% unlabeled ATP and radioactive ATP were captured by an excess of the ion exchange dowex resin; the resin then settled down to the bottom of the reaction plate by gravity. Supernatant was subsequently withdrawn and transferred into a counting plate, then evaluated by β-counting.
Reagents/Assay Conditions i. Dowex Resin Preparation
500 g of wet resin (SIGMA, custom prepared resin DOWEX 1×8 200-400 mesh, 2.5 Kg) were weighed out and diluted to 2 L in 150 mM sodium formate, pH 3.00.
The resin was allowed to settle down (some hours) and then the supernatant was discarded.
After three washes as above over a couple of days, the resin was allowed to settle and two volumes (wrt the resin volume) of 150 mM sodium formate buffer were added.
The pH was then measured and should have been around 3.00.
The washed resin was stable for more than one week; the stock resin was kept at 4° C. before use.
The buffer for PIM1 assay was composed of HEPES 50 mM, at pH 7.5, with 10 mM MgCl2, 1 mM DTT, 3 μM NaVO3, and 0.2 mg/mL BSA.
Full-length human PIM1 was expressed and purified as described in Bullock A N, et al., J. Biol. Chem. 2005, 280, 41675-82.
1.7 μM PIM1 was incubated 1 h at 28° C. in the presence of 125 μM ATP.
ATP concentration: 200 μM; ^33P-γ-ATP: 6 nM; Enzyme concentration: 1 nM Substrate concentration Aktide (Chemical Abstract Service Registry Number 324029-01-8): 25 μM iv. Robotized Dowex Assay
The test mix consisted of:
1) 3× Enzyme mix (done in Kinase Buffer 3×), 5 μL/well
2) 3× substrate and ATP mix (done in ddH2O), together with ^33P-γ-ATP, 5 μL/well 3) 3× test compounds (diluted into ddH2O—3% DMSO)—5 μL/well See below for compound dilution and assay scheme […]
An automated station (Biomek FX, Beckman) was used for serial dilutions, producing 1:3 dilutions in 100% DMSO, from line A1 to A10, for all the compounds in the column.
Data were analyzed by an internally customized version of the “Assay Explorer” SW package, which provided sigmoidal fitting of the ten-dilution curves for IC50 determination in secondary assay/hit confirmation routines.

MV-4-11 cells = assay: In vitro cell proliferation assay (CellTiter-Glo), MV-4-11; assay type: cell-based; settings: Homo sapiens, MV4-11, 72 hours
Experimental: as §1
MV-4-11 (biphenotypic B myelomonocytic leukemia) cell line was obtained from ATCC.
Media for MV-4-11 cell line contained RPMI 1640 or EMEM plus 2 mM Glutamine and 10% Fetal bovine serum.
as §2, §3, §4, §5, §6

Chain of human PIM2 (Q9P1W9 whole entry): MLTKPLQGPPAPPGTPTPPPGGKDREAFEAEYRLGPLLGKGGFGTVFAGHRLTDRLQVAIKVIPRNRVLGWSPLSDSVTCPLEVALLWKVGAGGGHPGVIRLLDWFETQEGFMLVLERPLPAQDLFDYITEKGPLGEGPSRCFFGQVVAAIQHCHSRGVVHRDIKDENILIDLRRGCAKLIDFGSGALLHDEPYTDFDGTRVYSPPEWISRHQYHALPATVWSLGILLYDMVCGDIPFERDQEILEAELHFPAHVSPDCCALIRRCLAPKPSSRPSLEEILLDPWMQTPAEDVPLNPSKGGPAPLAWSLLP
Chain of human PIM1 (P11309 whole entry): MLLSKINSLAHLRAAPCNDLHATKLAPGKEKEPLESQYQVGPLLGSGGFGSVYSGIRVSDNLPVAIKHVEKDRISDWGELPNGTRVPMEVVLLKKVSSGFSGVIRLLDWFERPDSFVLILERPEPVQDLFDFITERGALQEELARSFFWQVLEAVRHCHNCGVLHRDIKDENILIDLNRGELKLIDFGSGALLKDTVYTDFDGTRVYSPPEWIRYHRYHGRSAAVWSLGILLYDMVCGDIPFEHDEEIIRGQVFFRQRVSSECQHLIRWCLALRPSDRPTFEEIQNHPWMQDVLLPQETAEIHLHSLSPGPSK

pIC50 (human PIM2) | pIC50 (BaF3-PIM1 cells) | pIC50 (human PIM1) | pIC50 (MV-4-11 cells) | SMILES
7.42 | 6.48 | 8.40 | 5.54 | CN(C)Cc1ccc(-c2c(-c3cccc(OC(F)(F)F)c3)cc3n2C(CCO)CNC3=O)cc1 (stereo not shown) [Compound 83, 6-{4-[(dimethylamino)methyl]phenyl}-4-(2-hydroxyethyl)-7-[3-(trifluoromethoxy)phenyl]-3,4-dihydropyrrolo[1,2-a]pyrazin-1(2H)-one trifluoroacetate]
7.16 | 7.07 | 7.92 | 5.44 | NCC[C@H]1CNC(=O)c2cc(-c3cccc(OC(F)(F)F)c3)c(-c3ccsc3)n21 [Compound 85, (4S)-4-(2-aminoethyl)-6-(thiophen-3-yl)-7-[3-(trifluoromethoxy)phenyl]-3,4-dihydropyrrolo[1,2-a]pyrazin-1(2H)-one hydrochloride]
7.82 | 6.83 | 8.30 | 5.66 | Cc1cccc(-c2c(-c3cccc(OC(F)(F)F)c3)cc3n2[C@@H](CCN)CNC3=O)c1 [Compound 92, (4S)-4-(2-aminoethyl)-6-(3-methylphenyl)-7-[3-(trifluoromethoxy)phenyl]-3,4-dihydropyrrolo[1,2-a]pyrazin-1(2H)-one hydrochloride]
7.57 | 6.37 | 7.70 | 5.27 | NCC[C@H]1CNC(=O)c2cc(-c3cccc(OC(F)(F)F)c3)c(-c3ccc(F)cc3)n21 [Compound 94, (4S)-4-(2-aminoethyl)-6-(4-fluorophenyl)-7-[3-(trifluoromethoxy)phenyl]-3,4-dihydropyrrolo[1,2-a]pyrazin-1(2H)-one hydrochloride]
7.77 | 6.24 | 8.22 | 5.90 | CC(=O)c1ccc(-c2c(-c3cccc(OC(F)(F)F)c3)cc3n2[C@@H](CCN)CNC3=O)cc1 [Compound 95, (4S)-6-(4-acetylphenyl)-4-(2-aminoethyl)-7-[3-(trifluoromethoxy)phenyl]-3,4-dihydropyrrolo[1,2-a]pyrazin-1(2H)-one hydrochloride]
7.66 | 5.82 | 8.15 | 5.68 | NCC[C@H]1CNC(=O)c2cc(-c3cccc(OC(F)(F)F)c3)c(-c3ccc(C=O)cc3)n21 [Compound 97, 4-{(4S)-4-(2-aminoethyl)-1-oxo-7-[3-(trifluoromethoxy)phenyl]-1,2,3,4-tetrahydropyrrolo[1,2-a]pyrazin-6-yl}benzaldehyde hydrochloride]
8.15 | 6.39 | 8.70 | 6.17 | NCC[C@H]1CNC(=O)c2cc(-c3cccc(OC(F)(F)F)c3)c(-c3ccc(CN4CCOCC4)cc3)n21 [Compound 99, (4S)-4-(2-aminoethyl)-6-[4-(morpholin-4-ylmethyl)phenyl]-7-[3-(trifluoromethoxy)phenyl]-3,4-dihydropyrrolo[1,2-a]pyrazin-1(2H)-one hydrochloride]
8.70 | 5.51 | 9.00 | 6.21 | CN1CCN(Cc2ccc(-c3c(-c4cccc(OC(F)(F)F)c4)cc4n3[C@@H](CCN)CNC4=O)cc2)CC1 [Compound 100, (4S)-4-(2-aminoethyl)-6-{4-[(4-methylpiperazin-1-yl)methyl]phenyl}-7-[3-(trifluoromethoxy)phenyl]-3,4-dihydropyrrolo[1,2-a]pyrazin-1(2H)-one hydrochloride]
8.05 | 6.53 | 9.00 | 6.03 | CN(C)Cc1ccc(-c2c(-c3cccc(OC(F)(F)F)c3)cc3n2[C@@H](CCN)CNC3=O)cc1 [Compound 101, (4S)-4-(2-aminoethyl)-6-{4-[(dimethylamino)methyl]phenyl}-7-[3-(trifluoromethoxy)phenyl]-3,4-dihydropyrrolo[1,2-a]pyrazin-1(2H)-one hydrochloride]
6.81 | 6.08 | 7.72 | 5.79 | NCCC[C@H]1CNC(=O)c2cc(-c3cccc(OC(F)(F)F)c3)c(-c3ccccc3)n21 [Compound 102, (4S)-4-(3-aminopropyl)-6-phenyl-7-[3-(trifluoromethoxy)phenyl]-3,4-dihydropyrrolo[1,2-a]pyrazin-1(2H)-one hydrochloride]
6.82 | 5.93 | 7.96 | 5.53 | NCCC[C@H]1CNC(=O)c2cc(-c3cccc(OC(F)(F)F)c3)c(-c3ccsc3)n21 [Compound 103, (4S)-4-(3-aminopropyl)-6-(thiophen-3-yl)-7-[3-(trifluoromethoxy)phenyl]-3,4-dihydropyrrolo[1,2-a]pyrazin-1(2H)-one hydrochloride]
6.89 | 5.41 | 7.66 | 5.50 | CC(=O)c1ccc(-c2c(-c3cccc(OC(F)(F)F)c3)cc3n2[C@@H](CCCN)CNC3=O)cc1 [Compound 110, (4S)-6-(4-acetylphenyl)-4-(3-aminopropyl)-7-[3-(trifluoromethoxy)phenyl]-3,4-dihydropyrrolo[1,2-a]pyrazin-1(2H)-one hydrochloride]
7.80 | 7.15 | 8.22 | 5.75 | NCC[C@H]1CNC(=O)c2cc(-c3cccc(OC(F)(F)F)c3)c(-c3ccc4c(c3)OCO4)n21 [Compound 112, (4S)-4-(2-aminoethyl)-6-(1,3-benzodioxol-5-yl)-7-[3-(trifluoromethoxy)phenyl]-3,4-dihydropyrrolo[1,2-a]pyrazin-1(2H)-one hydrochloride]
7.34 | 7.12 | 8.52 | 6.09 | CN(C)c1ccc(-c2c(-c3cccc(OC(F)(F)F)c3)cc3n2[C@@H](CCN)CNC3=O)cc1 [Compound 115, (4S)-4-(2-aminoethyl)-6-[4-(dimethylamino)phenyl]-7-[3-(trifluoromethoxy)phenyl]-3,4-dihydropyrrolo[1,2-a]pyrazin-1(2H)-one hydrochloride]
7.66 | 6.85 | 8.52 | 6.06 | COc1ccc(-c2c(-c3cccc(OC(F)(F)F)c3)cc3n2[C@@H](CCN)CNC3=O)cc1 [Compound 116, (4S)-4-(2-aminoethyl)-6-(4-methoxyphenyl)-7-[3-(trifluoromethoxy)phenyl]-3,4-dihydropyrrolo[1,2-a]pyrazin-1(2H)-one hydrochloride]

SMILES | pIC50 (human PIM2) | pIC50 (BaF3-PIM1 cells) | pIC50 (human PIM1) | pIC50 (MV-4-11 cells)
NCC[C@H]1CNC(=O)c2cc(-c3cccc(OC(F)(F)F)c3)c(-c3ccccc3)n21 [Compound 87, (4S)-4-(2-aminoethyl)-6-phenyl-7-[3-(trifluoromethoxy)phenyl]-3,4-dihydropyrrolo[1,2-a]pyrazin-1(2H)-one] | 7.42 | 6.69 | 8.05 | 5.44
